Consider eleven compounds from patent US11739070B2, “C5A receptor modulators” (IDORSIA PHARMACEUTICALS LTD, priority 2018, dated 2023).

This assay deals with T1, C5AR1 (Homo sapiens, UniProt P21730).
T1 construct: host or cells: CHO-K1
T1 sequence (P21730 1-350): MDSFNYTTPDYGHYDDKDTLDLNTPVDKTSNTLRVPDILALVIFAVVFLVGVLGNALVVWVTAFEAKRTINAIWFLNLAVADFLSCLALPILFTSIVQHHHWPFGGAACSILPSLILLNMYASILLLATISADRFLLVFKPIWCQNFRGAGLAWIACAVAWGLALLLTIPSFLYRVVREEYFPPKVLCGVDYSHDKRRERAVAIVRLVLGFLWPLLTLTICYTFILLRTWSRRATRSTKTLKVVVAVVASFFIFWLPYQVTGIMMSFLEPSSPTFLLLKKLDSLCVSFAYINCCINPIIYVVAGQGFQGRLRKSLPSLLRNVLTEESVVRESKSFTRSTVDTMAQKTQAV
Nature of the assay: hC5a DISCO IC50 assay (PathHunter beta-arrestin, antagonist mode). The class given is cell-based. The note with it: CHO-K1 C5AR1 beta-arrestin cell line; antagonist vs 1-10 nM C5a agonist; geometric mean values; read-out: C5aR IC50. An outline of the steps:
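Antagonist added first, then 1-10 nM C5a agonist; cells incubated 1.5 h at 37 °C. Beta-arrestin signal developed with PathHunter detection reagent, 45 min at RT. IC50 in nmol/l from serial antagonist dilutions, reported as geometric mean of several measurements.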
Consider `COc1cccc2c1n(Cc1ccccc1C(F)(F)F)c(=O)n2C1CCCN(c2c(C)cccc2C)CC1` (centres unmarked) [Example 185, 1-[1-(2,6-Dimethyl-phenyl)-azepan-4-yl]-4-methoxy-3-(2-trifluoromethyl-benzyl)-1,3-dihydro-benzoimidazol-2-one], for which the IC50 was 0.036 µM.
Turning to `COc1cccc2c1n(Cc1ccccc1C(F)(F)F)c(=O)n2[C@@H]1CCN(c2c(F)cccc2CN2CCOCC2)C1` [Example 115, 1-[(R)-1-(2-Fluoro-6-morpholin-4-ylmethyl-phenyl)-pyrrolidin-3-yl]-4-methoxy-3-(2-trifluoromethyl-benzyl)-1,3-dihydro-benzoimidazol-2-one], the IC50 worked out at 0.021 µM.
The figure for `COc1cccc2c1n(Cc1ncccc1C(F)(F)F)c(=O)n2[C@@H]1CCN(c2c(C)cccc2F)C1` [Example 202, 1-[(R)-1-(2-Fluoro-6-methyl-phenyl)-pyrrolidin-3-yl]-4-methoxy-3-(3-trifluoromethyl-pyridin-2-ylmethyl)-1,3-dihydro-benzoimidazol-2-one] is 0.002 µM.
As to `COc1cc(C)nc2c1n(Cc1ccccc1C(F)(F)F)c(=O)n2[C@@H]1CCN(c2c(C)cccc2F)C1` [Example 171, 3-[(R)-1-(2-Fluoro-6-methyl-phenyl)-pyrrolidin-3-yl]-7-methoxy-5-methyl-1-(2-trifluoromethyl-benzyl)-1,3-dihydro-imidazo[4,5-b]pyridin-2-one], the IC50 is 0.064 µM.
Regarding `COc1cccc2c1n(Cc1cncnc1C(C)C)c(=O)n2[C@@H]1CCN(c2c(C)cccc2F)C1` [Example 186, 1-[(R)-1-(2-Fluoro-6-methyl-phenyl)-pyrrolidin-3-yl]-3-(4-isopropyl-pyrimidin-5-ylmethyl)-4-methoxy-1,3-dihydro-benzoimidazol-2-one], the IC50 was found to be 0.014 µM.
The figure for `COc1cccc2c1n(Cc1cnccc1C(F)(F)F)c(=O)n2C1CCN(C(=O)OC(C)(C)C)CC1` [Example 53, 4-[4-Methoxy-2-oxo-3-(4-trifluoromethyl-pyridin-3-ylmethyl)-2,3-dihydro-benzoimidazol-1-yl]-piperidine-1-carboxylic acid tert-butyl ester] is 1.84 µM; for `COc1cccc2c1n(Cc1ccccc1C(F)(F)F)c(=O)n2C1CCN(c2c(Cl)c(C3CC3)nn2C)CC1` [Example 24, 1-[1-(4-Chloro-5-cyclopropyl-2-methyl-2H-pyrazol-3-yl)-piperidin-4-yl]-4-methoxy-3-(2-trifluoromethyl-benzyl)-1,3-dihydro-benzoimidazol-2-one] it is 0.33 µM.
Under `COc1cccc2c1n(Cc1ccccc1C(F)(F)F)c(=O)n2C1CCN(c2c(C)ccnc2F)CC1` [Example 235, 1-(2′-Fluoro-4′-methyl-3,4,5,6-tetrahydro-2H-[1,3′]bipyridinyl-4-yl)-4-methoxy-3-(2-trifluoromethyl-benzyl)-1,3-dihydro-benzoimidazol-2-one] stands 0.028 µM; under `COc1cccc2c1n(Cc1nccnc1C(C)C)c(=O)n2C1CCN(c2c(C)cccc2F)CC1` [Example 187, 1-[1-(2-Fluoro-6-methyl-phenyl)-piperidin-4-yl]-3-(3-isopropyl-pyrazin-2-ylmethyl)-4-methoxy-1,3-dihydro-benzoimidazol-2-one], 0.026 µM; under `Cc1cccc(F)c1N1CC[C@@H](n2c(=O)n(Cc3ccccc3C(F)(F)F)c3c(OC4CCN(C(=O)OC(C)(C)C)CC4)nccc32)C1` [Example 122, 4-[1-[(R)-1-(2-Fluoro-6-methyl-phenyl)-pyrrolidin-3-yl]-2-oxo-3-(2-trifluoromethyl-benzyl)-2,3-dihydro-1H-imidazo[4,5-c]pyridin-4-yloxy]-piperidine-1-carboxylic acid tert-butyl ester], 0.509 µM.
`Cc1cccc(F)c1N1CC[C@@H](n2c(=O)n(Cc3ccccc3C(F)(F)F)c3c(=O)[nH]ccc32)C1` [Example 57, 1-[(R)-1-(2-Fluoro-6-methyl-phenyl)-pyrrolidin-3-yl]-3-(2-trifluoromethyl-benzyl)-3,5-dihydro-1H-imidazo[4,5-c]pyridine-2,4-dione]: the half-maximal inhibitory concentration (IC50) turned out to be 0.089 µM.

The term IC50 denotes the concentration needed to halve the response being measured.
